Format in all cases: cell-based
For assay [1], the system named is PEC. The assay can be described thus: Proliferation assay (Ki67 staining, flow cytometry). Conditions: PDGF-BB stimulation. On the procedure: To assess cell proliferation, we used the nuclear antigen Ki67 staining. After overnight starvation in ECBM+1% FBS, cells were treated 24 hours with PDGF-BB (10 ng/mL) or HBEGF (20 ng/mL) or corresponding controls. Cells were then trypsinized and washed in cold PBS. Supernatants were kept and included in analysis. After centrifugation, cells were permeabilized with 1 mL of ice-cold ethanol for 2 h at −20° C. Following two washes with FACS buffer (HBSS, 2% FBS and 10 mM HEPES), cells were stained for 30 min at room temperature in the dark with phycoerythrin (PE)-conjugated anti-human Ki67 mAb (clone B56) (BD Pharmingen) and washed. Samples were analyzed on a BD LSRII flow cytometer (BD Bioscience). An isotype control staining with PE mouse IgG1 was performed. Data were analyzed using FlowJo software (FlowJo, LLC).
Background: Flow cytometry measures light scatter and fluorescence of single cells or particles in a stream.

For assay [2], the system named is PEC. The assay can be described thus: Cell migration in IBIDI chambers (scratch assay). Particulars: scratch assays, growth factor stimulation. On the procedure:
Unoriented migration assay was performed using IBIDI chambers (Culture-Insert 2 Well in μ-Dish 35 mm, high ibiTreat, n° 81176). After confluence was obtained, PECs were grown in ECBM without supplements with FBS 1% overnight. The insert was then removed creating a gap of 500 μm between cells. A first round of photographs was taken (HO), shortly after cells were stimulated with either ECBM without supplements with FBS 1% (control), or with HB-EGF 10 ng/mL, or with PDGF-BB 10 ng/mL. Photographs were taken every 30 min for 12 h. Areas of migration were measured by automatic quantification on NIS-Elements AR software.

Another assay relates to PDGFRβ. The assay can be described thus: Western blot of PDGFRβ phosphorylation in PEC. Conditions: PEC stimulated with PDGF-BB. On the procedure: PEC lysates were prepared with RIPA extraction buffer containing phosphatase inhibitors and protease inhibitors (Roche). Equal amounts of proteins were loaded onto sodium dodecyl sulfate-polyacrylamide electrophoresis gels for separation and transferred onto poly(vinylidene difluoride) membranes. The membranes were blocked with milk and probed with different antibodies: rat anti-CD9 (BD Pharminogen, 553758, 1:1000), rabbit anti-phospho-PDGF receptor-β Y1009 (Cell Signaling Technology, 4549; 1:1000), rabbit anti-PDGFRB (Cell Signaling, 3169; 1:1000), rabbit anti-integrin […] (Millipore, 04-1109, 1:1000), rabbit anti-CASP3 (Cell Signaling Technology, 9662; 1:1000), rabbit anti-phospho EGFR Y1068 (Cell Signaling Technology, 2234; 1:1000), rabbit anti EGFR (Cell Signaling Technology, 2232; 1:1000), rabbit anti-phospho-FAK Y397 (Cell Signaling 3283, 1:1000), rabbit anti-FAK (Millipore, 06-543,1:1000). Membranes were then probed with horseradish peroxidase-conjugated secondary antibodies (Cell Signaling Technology, 7074 and 7076; 1:2000; Jackson Immunoresearch, 706-036-148; 1:1000) and bands were visualized by enhanced chemiluminescence (Clarity Western ECL substrate; Bio-Rad, 170-5061). A LAS-4000 imaging system (Fuji, LAS4000, Burlington, N.J., USA) was used to reveal bands and densitometric analysis was used for quantification.

Data on two molecules can be found in patent publication US12523663B2, “Use of CD9 as a biomarker and as a biotarget in glomerulonephritis or glomerulosclerosis” (INSERM (INSTITUT NATIONAL DE LA SANTÉ ET DE LA RECHERCHE …, priority 2019, dated 2026).

As to “PDGF-BB: growth factor used to stimulate PECs”, the “PEC proliferation (number of KI67+ cells)” value with PEC [1] was “induced PEC proliferation”. Also, the PEC migration result with PEC [2] is reported as “induced PEC migration”. For the same molecule, in the assay on PDGFRβ, the PDGFRβ phosphorylation entry is “induced a rapid and transient PDGFRβ phosphorylation”.

B1: HB-EGF: growth factor used to stimulate PECs (protein, UniProt Q99075 63-148, looked up)
Heparin-binding EGF-like …: DLQEADLDLLRVTLSSKPQALATPNKEEHGKRKKKGKGLGKKRDPCLRKYKDFCIHGECKYVKELRAPSCICHPGYHGERCHGLSL
Take B1: in the assay with PEC [2], the PEC migration entry was “induced PEC migration”.
